Results as given in publication PMC7334220, “Diamond Blackfan anemia is mediated by hyperactive Nemo-like kinase” (Nature Communications, 2020).

How the values were obtained:
[1] = tested on: RPL11-insufficient cord blood CD34+ HSPCs; assay: In vitro differentiation of cord blood CD34+ HSPCs transduced with shRNA against RPL11; assay type: cell-based; details: Homo sapiens, 360 h; read-out: erythroid expansion in RPL11-insufficiency, % of control
Text: Fig. 8 NLK inhibition increases expansion of erythroid progenitors from human and murine models of DBA. a Human cord blood CD34^+ progenitors were transduced with lentivirus co-expressing GFP with shRNA against luciferase (shLuc), RPS19 (shRPS19), or RPL11 (shRPL11). […] Cells were counted and assessed for cell surface expression of CD235. b Lin-Kit^+ hematopoietic progenitors were obtained from three mouse embryos expressing tetracycline-inducible shRNA against RPS19 at day E14.5 or three untreated mice, and thee mature RPL11^+/+ or three mature RPL11^+/lox mice treated with tamoxifen for eight weeks. […] Values were expressed as a percentage relative to untreated controls. c, d Intracellular phosphorylation of NLK at Thr298 was determined by capillary electrophoresis using the Peggy Sue™ Automated Western blotting platform. After lysis, 4 µg of protein from the CD235^+ population was probed against pThr298-NLK and normalized to GAPDH. […] After counting the total cell population, the ratio of CD235^+ erythroblasts was determined by flow cytometry and number of CD235^+ erythroblasts calculated. This was expressed as a percentage of the average number of erythroid cells present in untreated healthy controls. f NLK phosphorylation was assessed by capillary electrophoresis as above. Bars represent means ± SD with individual data points overlaid. […]

p38 = target: T1, p38 (Homo sapiens, UniProt Q16539); assay: p38 in vitro kinase assay; assay type: biochemical; details: Supplementary Fig. 4b; read-out: observed IC50 against p38
T1 construct: endogenous in cells; host or cells: Kp53A1 cells stimulated with IL-3, IL-6, SCF and Epo; immunoprecipitated with a p38 antibody
T1 sequence (Q16539 2-360 limits assumed): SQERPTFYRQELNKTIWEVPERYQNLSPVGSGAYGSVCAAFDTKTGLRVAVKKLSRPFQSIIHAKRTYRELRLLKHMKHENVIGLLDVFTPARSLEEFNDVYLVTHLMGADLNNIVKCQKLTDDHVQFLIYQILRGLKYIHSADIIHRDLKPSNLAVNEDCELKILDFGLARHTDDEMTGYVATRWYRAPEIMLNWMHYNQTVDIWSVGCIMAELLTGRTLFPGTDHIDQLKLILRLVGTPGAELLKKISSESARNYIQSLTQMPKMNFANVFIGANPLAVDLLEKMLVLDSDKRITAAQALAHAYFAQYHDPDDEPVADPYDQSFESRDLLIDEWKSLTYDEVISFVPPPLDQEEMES
Method: Equivalent protein was loaded between samples. b—blue Transduced progenitors were differentiated for 15 days and sorted for surface expression of CD235 + , CD41 + and CD11b + population NLK mRNA was assessed by qRT-PCR. c Control and shRPS19-transduced CB progenitors were differentiated for 10 days prior to separation into CD71^+ and CD71^- populations and assessed for pThr298-NLK phosphorylation by Western blot analysis. d—purple CB CD34 + progenitors were transduced with shRNA against luciferase (shLuc) or RPS19 (shRPS19) along with CFP-NLK and YFP-NLK and differentiated for 10 days. NLK dimerization was quantified by FRET. e—left panel NLK was immunoprecipitated from transduced differentiating CD71^+ and CD71^- populations after 10 days, and incubated in the presence of ATP, Mg^2+ and dephosphorylated NLK (i orange), c-Myb (ii—blue) and Raptor (iii—green) for 30 min at 37 °C. Phosphorylation was detected by a combination of anti^-phosphoserine-HRP and anti-phosphothreonine-HRP antibodies, or mouse anti-phosphoserine and anti-mouse-HRP antibodies. e—right panel For comparison, NLK in vitro kinase activity was assessed from CD235^+, CD41^+ and CD11b^+ populations enriched after identical treatments. f A panel of eight small molecule p38 inhibitors were titrated into in vitro kinase assays in the presence of activated NLK or p38 from stimulated Kp53A1 cells. […]

`Fc1ccc(Cl)cc1-c1nc(Nc2ccncc2)c2nccnc2n1` [SD208] was tested, and the activity at 5 µM [1] was 36.7% and the IC50 (p38) was 910 nM.
